Experimental data: patent publication US12552795B2, “Pyrrolotriazine derivatives for treating kit-and PDGFRA-mediated diseases” (Blueprint Medicines Corporation, priority 2019, dated 2026)

Legend:
PDGFRα D842V = PDGFRα D842V (Homo sapiens (Human), UniProt P16234, D842V); assay: PDGFRα D842V biochemical enzymatic activity assay (EZReader 2 mobility shift); details: ATP at APPKM (25 μM), 90 minutes
Text: PDGFRα and KIT enzymatic activity was monitored using the Perkin Elmer electrophoretic mobility shift technology platform, the EZReader 2.
Within the linear, steady-state phase of the kinase enzymatic reaction, the mixed pool of phosphorylated (product) and non-phosphorylated (substrate) peptides was passed through the microfluidic system of the PerkinElmer EZ Reader 2, under an applied electric potential difference. The presence of the phosphate group on the product peptide provided a difference in mass and charge between that of the substrate peptide, resulting in a separation of the substrate and product pools in the sample (Perrin et al., Expert Opin Drug Discovery 2010, January 5(1):51-63).
As the product and substrate peptide mixture passes the lasers within the instrument, these pools are detected (λex=488 nm, λem=568 nm) and resolved as separate peaks. The ratio between these peaks reflects the activity of the compound at that concentration, in that well, under those conditions.
Inhibition of KIT (D816V) PDGFRα (D842V) Mutant Biochemical Enzymatic Activity
All test articles were dissolved in 100% DMSO at a stock concentration of 10 mM. A 100×, 10-point, 4-fold serial dilution of all test compounds was created in 100% DMSO, starting at a relevant concentration, usually 1 mM. A volume of 0.130 μL of each concentration was transferred to the relevant well of a 384-well assay plate (Greiner 781 201) using a TTPLabtech Mosquito nano-liter dispenser. Using the Multidrop, the remaining constituents of the reaction were then added to the 0.130 μL of compound as follows:
The reaction was stopped by the addition of 70 μl of Stop buffer (100 mM HEPES pH 7.5, 0.015% Brij 35, 35 mM EDTA and 0.2% of Coating Reagent 3, Caliper Lifesciences). The plate was read on a Caliper EZReader 2.

[1] = Brain penetration in rats, 24 h IV infusion, brain to plasma ratios; assay type: in vivo, Sprague-Dawley rats
Text: To understand the brain penetration, brain to plasma ratios of the compounds were obtained in Sprague-Dawley (SD) rats. In vivo equilibrium distribution between blood and brain in preclinical species such as rats is a commonly used parameter to evaluate brain penetration. Kp,brain is the ratio of concentrations in brain and blood (Cbrain/Cplasma). The compound's passive diffusion characteristics, its affinity for membrane transporters at the blood-brain barrier (BBB), and the relative drug binding affinity differences between the plasma proteins and brain tissue influence the Kp,brain.
The animals received IV infusion of 1 mg/kg/hr of the compound over 24 hours via jugular vein cannulation. At 24 hours, blood was collected via tail vein bleeding or cardiac puncture (under anesthesia) and centrifuged to obtain plasma samples. Brain tissues were collected and homogenized with phosphate-buffered saline (PBS). The concentrations of the compounds were obtained in the plasma and brain homogenates by LC-MS/MS analysis.

PDGFRα D842V, sequence (P16234 24-1089 D842V): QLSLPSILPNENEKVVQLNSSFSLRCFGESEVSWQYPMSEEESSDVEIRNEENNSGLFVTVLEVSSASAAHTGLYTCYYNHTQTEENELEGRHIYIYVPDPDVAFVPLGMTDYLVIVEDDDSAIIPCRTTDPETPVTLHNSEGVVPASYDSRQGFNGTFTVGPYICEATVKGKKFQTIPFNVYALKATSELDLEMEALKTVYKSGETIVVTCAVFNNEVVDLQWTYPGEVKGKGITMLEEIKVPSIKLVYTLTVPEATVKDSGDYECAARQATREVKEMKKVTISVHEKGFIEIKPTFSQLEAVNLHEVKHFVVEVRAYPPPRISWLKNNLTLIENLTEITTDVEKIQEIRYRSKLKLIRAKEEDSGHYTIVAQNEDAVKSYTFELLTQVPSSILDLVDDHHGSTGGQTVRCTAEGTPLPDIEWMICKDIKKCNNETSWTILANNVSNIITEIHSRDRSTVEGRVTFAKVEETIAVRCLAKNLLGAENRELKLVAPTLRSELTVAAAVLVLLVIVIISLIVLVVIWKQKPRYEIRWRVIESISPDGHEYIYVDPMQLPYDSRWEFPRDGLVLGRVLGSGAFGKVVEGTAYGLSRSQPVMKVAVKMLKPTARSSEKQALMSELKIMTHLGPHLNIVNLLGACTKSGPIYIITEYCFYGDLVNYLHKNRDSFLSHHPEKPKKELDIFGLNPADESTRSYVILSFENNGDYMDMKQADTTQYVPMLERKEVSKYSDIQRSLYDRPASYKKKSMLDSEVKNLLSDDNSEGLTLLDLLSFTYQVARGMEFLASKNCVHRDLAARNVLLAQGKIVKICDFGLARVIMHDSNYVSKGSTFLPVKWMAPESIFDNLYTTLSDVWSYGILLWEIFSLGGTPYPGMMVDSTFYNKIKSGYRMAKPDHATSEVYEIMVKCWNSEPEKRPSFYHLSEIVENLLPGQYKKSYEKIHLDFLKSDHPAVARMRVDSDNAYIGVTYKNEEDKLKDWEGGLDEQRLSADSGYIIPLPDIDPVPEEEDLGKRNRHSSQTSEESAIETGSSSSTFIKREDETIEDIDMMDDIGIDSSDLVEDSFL

CC(C)(O)Cn1cc(-c2cc3c(N4CCN(c5ncc([C@@](C)(N)c6ccc(F)cc6)cn5)CC4)ncnn3c2)cn1 [Compound 1, (S)-1-(4-(4-(4-(5-(1-Amino-1-(4-fluorophenyl)ethyl)pyrimidin-2-yl)piperazin-1-yl)pyrrolo[2,1-f][1,2,4]triazin-6-yl)-1H-pyrazol-1-yl)-2-methylpropan-2-ol]
IC50 (PDGFRα D842V): < 0.3 nM

CC(C)(CO)n1cc(-c2cc3c(N4CCN(c5ncc([C@@](C)(N)c6ccc(F)cc6)cn5)CC4)ncnn3c2)cn1 [Compound 2, (S)-2-(4-(4-(4-(5-(1-amino-1-(4-fluorophenyl)ethyl)pyrimidin-2-yl)piperazin-1-yl)pyrrolo[2,1-f][1,2,4]triazin-6-yl)-1H-pyrazol-1-yl)-2-methylpropan-1-ol]
IC50 (PDGFRα D842V): < 0.3 nM

C[C@@H](O)Cn1cc(-c2cc3c(N4CCN(c5ncc([C@@](C)(N)c6ccc(F)cc6)cn5)CC4)ncnn3c2)cn1 [Compound 3, (R)1-{4-[4-(4-{5-[(S)-1-Amino-1-(4-fluoro-phenyl)-ethyl]-pyrimidin-2-yl}-piperazin-1-yl)-pyrrolo[2,1-f][1,2,4]triazin-6-yl]-pyrazol-1-yl}-propan-2-ol]
IC50 (PDGFRα D842V): < 0.3 nM

C[C@](N)(c1ccc(F)cc1)c1cnc(N2CCN(c3ncnn4cc(-c5cnn(CCO)c5)cc34)CC2)nc1 [Compound 4, (S)-2-(4-(4-(4-(5-(1-Amino-1-(4-fluorophenyl)ethyl)pyrimidin-2-yl)piperazin-1-yl)pyrrolo[2,1-f][1,2,4]triazin-6-yl)-1H-pyrazol-1-yl)ethanol]
IC50 (PDGFRα D842V): < 0.3 nM

C[C@H](CO)n1cc(-c2cc3c(N4CCN(c5ncc([C@@](C)(N)c6ccc(F)cc6)cn5)CC4)ncnn3c2)cn1 [Compound 5, (R)-2-(4-(4-(4-(5-((S)-1-Amino-1-(4-fluorophenyl)ethyl)pyrimidin-2-yl)piperazin-1-yl)pyrrolo[2,1-f][1,2,4]triazin-6-yl)-1H-pyrazol-1-yl)propan-1-ol]
IC50 (PDGFRα D842V): < 0.3 nM

C[C@@H](CO)n1cc(-c2cc3c(N4CCN(c5ncc([C@@](C)(N)c6ccc(F)cc6)cn5)CC4)ncnn3c2)cn1 [Compound 6, (S)-2-(4-(4-(4-(5-((S)-1-amino-1-(4-fluorophenyl)ethyl)pyrimidin-2-yl)piperazin-1-yl)pyrrolo[2,1-f][1,2,4]triazin-6-yl)-1H-pyrazol-1-yl)propan-1-ol]
IC50 (PDGFRα D842V): < 0.3 nM

C[C@](N)(c1ccc(F)cc1)c1cnc(N2CCN(c3ncnn4cc(-c5cnn([C@H]6C[C@@H](O)C6)c5)cc34)CC2)nc1 [Compound 10, cis-3-(4-(4-(4-(5-((S)-1-Amino-1-(4-fluorophenyl)ethyl)pyrimidin-2-yl)piperazin-1-yl)pyrrolo[2,1-f][1,2,4]triazin-6-yl)-1H-pyrazol-1-yl)cyclobutanol]
Rat Kp ([1]; rat, methods of Example 4): < 0.39

CCn1cc(-c2cc3c(N4CCN(c5ncc([C@@](C)(N)c6ccc(F)cc6)cn5)CC4)ncnn3c2)cn1 [Compound 63, reference compound]
Kp, brain ([1]; Mean of 3 rats, IV infusion 1 mg/kg/hr over 24 hours): 1.75
